Test systems include CCRF-CEM; A498; SK-OV-3; MOLT-4; HCT-15; SF-539; SR; SK-MEL-28; HL-60; OVCAR-8; NCI-H460; SNB-75.
Experiment in all cases: inhibition of tumour cell growth, NCI panel, 48 h

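Five compound concentrations were applied to cells in 96-well plates for 48 hours; endpoints were derived by simple linear interpolation of the resulting dose-response curve. Abbreviation: GI50, concentration required for 50% inhibition of growth.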 Calls of active or inactive are those of the source. No stated cut-off is given here; in the data, active = GI50 up to about 1.1 µM and inactive = higher.

Take `CN(C)c1ccc2c(NCCCCCCNc3ccnc4cc(N(C)C)ccc34)ccnc2c1`: the GI50 in the assay on CCRF-CEM is 12.7 µM (inactive); with A498, 35.1 µM (inactive); with SK-OV-3, > 100 µM (inactive); with MOLT-4, 6 µM (inactive); in the assay on HCT-15, above 100 µM; in the assay on SF-539, 21.5 µM (inactive). For the same compound, the GI50 in the assay with SR was 7.73 µM (inactive); in the assay on SK-MEL-28, 14.3 µM (inactive); with HL-60 it was 6.7 µM (inactive); in the assay on OVCAR-8, 7.29 µM (inactive); with NCI-H460, 6.75 µM (inactive).

As to `C=CCC1(CC)C(=O)NC(=O)NC1=O` [ETALLOBARBITAL], the GI50 in the assay with CCRF-CEM was > 100 µM (inactive); in the assay on SK-OV-3, > 100 µM (inactive); in the assay on MOLT-4 it was > 100 µM (inactive); in the assay on HCT-15, above 100 µM; with SF-539, > 100 µM (inactive); with SR, > 100 µM (inactive). Besides, the GI50 with SK-MEL-28, with HL-60, with SNB-75, in the assay on OVCAR-8 and with NCI-H460 was > 100 µM (inactive) each time.

Consider `OCc1c[te]c(-c2ccccc2)c1`, for which the GI50 in the assay on CCRF-CEM is 17.5 µM (inactive); with A498, 92.3 µM (inactive); in the assay with SK-OV-3, > 100 µM (inactive); with MOLT-4 it was 38.8 µM (inactive); in the assay on HCT-15 it was 20.2 µM; with SF-539 it was 28.4 µM (inactive). Also, the GI50 is 63.1 µM (inactive) in the assay on SK-MEL-28; 12.6 µM (inactive) in the assay with HL-60; 44.5 µM (inactive) with SNB-75; 34.4 µM (inactive) in the assay with OVCAR-8; 31 µM (inactive) with NCI-H460.

Consider `CCOc1ccc(/N=N/c2ccc3oc(=O)c(/C(C)=N/NC(=O)CC(=O)Nc4cccc(OC)c4)cc3c2)cc1`, for which the GI50 in the assay with CCRF-CEM was 3.16 µM (inactive); with SK-OV-3 it was 38.8 µM (inactive); in the assay with MOLT-4, 3.56 µM (inactive); in the assay on HCT-15, 30.3 µM; in the assay with SF-539 it was 17.2 µM (inactive); with SR it was 2.64 µM (inactive). For the same compound, the GI50 in the assay on SK-MEL-28 is 20.8 µM (inactive); in the assay with HL-60, 3.64 µM (inactive); in the assay with OVCAR-8, 18.7 µM (inactive); with NCI-H460 it was 20 µM (inactive).

Take `CN(C)/N=N/c1ccc(S(N)(=O)=O)cc1`: the GI50 in the assay on CCRF-CEM was 6.43 µM (inactive); with A498 it was > 100 µM (inactive); with SK-OV-3 it was > 100 µM (inactive); in the assay with MOLT-4, > 100 µM (inactive); in the assay on HCT-15, above 100 µM; in the assay with SF-539 it was > 100 µM (inactive). Moreover, the GI50 in the assay on SR is > 100 µM (inactive); with SK-MEL-28, > 100 µM (inactive); in the assay on SNB-75 it was 92.9 µM (inactive); with OVCAR-8, > 100 µM (inactive); with NCI-H460, > 100 µM (inactive).

As for `Cc1cccc(N2C(=O)C(=O)C(c3nc4ccccc4s3)/C(=N/NC(=S)NN)C2=O)c1C` (stereo unspecified), the GI50 with A498 was > 100 µM (inactive); in the assay on SK-OV-3, > 100 µM (inactive); in the assay on MOLT-4, 90.6 µM (inactive); with HCT-15, above 100 µM; with SF-539, > 100 µM (inactive); in the assay with SK-MEL-28, > 100 µM (inactive). The GI50 with SNB-75, in the assay on OVCAR-8 and in the assay with NCI-H460 was > 100 µM (inactive) each time.

As for `COc1ccc(C[C@@H]2Cc3cc(OC)c(OC)cc3CN2C)cc1`, the GI50 with CCRF-CEM is > 100 µM (inactive); in the assay on A498, > 100 µM (inactive); in the assay with MOLT-4, > 100 µM (inactive); with HCT-15, above 100 µM; in the assay on SK-MEL-28, > 100 µM (inactive); in the assay on SNB-75, > 100 µM (inactive). The GI50 in the assay on OVCAR-8 and with NCI-H460 was > 100 µM (inactive) each time.

As for `CCOC(=O)/C(C#N)=C\C=C1/C=CN=C2NCCN21`, the GI50 is > 100 µM (inactive) with CCRF-CEM; > 100 µM (inactive) in the assay with SK-OV-3; > 100 µM (inactive) in the assay with MOLT-4; above 100 µM in the assay with HCT-15; > 100 µM (inactive) in the assay on SF-539; > 100 µM (inactive) with SR. In addition, the GI50 was > 100 µM (inactive) with SK-MEL-28; > 100 µM (inactive) in the assay on HL-60; 14.4 µM (inactive) in the assay with SNB-75; > 100 µM (inactive) in the assay on OVCAR-8; > 100 µM (inactive) with NCI-H460.

As for `COc1cc2ccn3c4cc(OC)c(OC)cc4cc3c2cc1OC`, the GI50 in the assay on CCRF-CEM, with A498, in the assay with SK-OV-3, in the assay on MOLT-4, in the assay with SR and in the assay on SK-MEL-28 was > 100 µM (inactive) in each case. Further, the GI50 with HL-60 is 4.83 µM (inactive); in the assay with SNB-75, > 100 µM (inactive); with OVCAR-8, > 100 µM (inactive); in the assay on NCI-H460, > 100 µM (inactive).

`CCOP(=O)(Cc1ccc(CP(=O)(OCC)OCC)n1C)OCC`: the GI50 in the assay on CCRF-CEM is > 100 µM (inactive); in the assay with SK-OV-3, > 100 µM (inactive); in the assay on MOLT-4 it was > 100 µM (inactive); in the assay with HCT-15, above 100 µM; with SF-539, > 100 µM (inactive); in the assay with SK-MEL-28 it was > 100 µM (inactive). Besides, the GI50 in the assay with HL-60, with SNB-75, in the assay with OVCAR-8 and with NCI-H460 was > 100 µM (inactive) in each case.

Turning to `Cc1ccc(C2=CC(=O)c3ccccc3C2=O)n1-c1ccccc1`, the GI50 is 23 µM (inactive) in the assay on CCRF-CEM; > 100 µM (inactive) in the assay on SK-OV-3; 26.1 µM (inactive) in the assay on MOLT-4; 89.9 µM (inactive) in the assay on SF-539; > 100 µM (inactive) in the assay on SK-MEL-28; 32.8 µM (inactive) in the assay with HL-60. Moreover, the GI50 was > 100 µM (inactive) in the assay with SNB-75, > 100 µM (inactive) in the assay with OVCAR-8 and 48 µM (inactive) in the assay on NCI-H460.

Turning to `CC(C)(C)[Si](C)(C)O/N=C\c1ccc(O[Si](C)(C)C(C)(C)C)cc1`, the GI50 was 49.8 µM (inactive) in the assay on CCRF-CEM; 52.4 µM (inactive) in the assay with A498; > 100 µM (inactive) with SK-OV-3; 41.3 µM (inactive) in the assay with MOLT-4; 33.3 µM with HCT-15; 42.5 µM (inactive) in the assay on SF-539. Besides, the GI50 in the assay with HL-60 was 36.5 µM (inactive); with SNB-75, 72.1 µM (inactive); in the assay with OVCAR-8 it was 62.8 µM (inactive); in the assay on NCI-H460 it was > 100 µM (inactive).

As to `O=S(=O)(OI(OI(OS(=O)(=O)C(F)(F)F)c1ccccc1)c1ccccc1)C(F)(F)F`, the GI50 is 13.9 µM (inactive) with CCRF-CEM; > 100 µM (inactive) in the assay on A498; 20.2 µM (inactive) in the assay with MOLT-4; above 100 µM with HCT-15; 86.3 µM (inactive) with SF-539; 4.33 µM (inactive) with HL-60. The GI50 in the assay with SNB-75 was 60.8 µM (inactive); with OVCAR-8, 48.8 µM (inactive); with NCI-H460, 39.5 µM (inactive).

On to `O=c1c2cc(Br)ccc2nc(-c2ccccc2Cl)n1NCC1(O)OCC(O)C(O)C1O` (stereo unspecified), for which the GI50 is 46.7 µM (inactive) with CCRF-CEM; > 100 µM (inactive) with A498; > 100 µM (inactive) in the assay on SK-OV-3; 57.1 µM (inactive) in the assay with MOLT-4; above 100 µM with HCT-15; 35.6 µM (inactive) in the assay with SR. In addition, the GI50 is > 100 µM (inactive) in the assay on SK-MEL-28; 33.6 µM (inactive) with HL-60; > 100 µM (inactive) in the assay on SNB-75; > 100 µM (inactive) in the assay on OVCAR-8; > 100 µM (inactive) with NCI-H460.

For the origin of these results see ChEMBL document CHEMBL1201862, “PubChem BioAssay data set” (2004).
